# Source: patent US7718128B2, “Application using non-covalent bond between a cucurbituril derivative and a ligand” (Postech Foundation, priority 2005, dated 2010)
# System: KB cells (oral carcinoma cells)
# Assay: measurement of degree of cell death by flow cytometry (annexin V-ferrocene derivative / FITC-cucurbituril derivative)
# Format: cell-based
# Details: 0.5 μM (0.3 μg/mL) doxorubicin, 3 days, versus sample not treated
# Method: After a ferrocene derivative bound to annexin V, which is known as a protein that can selectively bind to surfaces of dead cells, was treated on cells induced to die using an anti-cancer drug, the cells were treated with an FITC-bound cucurbituril derivative, and the degree of cell death was measured through flow cytometry.
# 2 mL of […] culture solution (containing 10% FCS) and about 10^6 KB cells (oral carcinoma cells) (obtained from the Korean Cell Line Bank (KCLB)) were cultured in two 6-well cell culture dishes at 37° C. in a 5% CO2 condition for 48 hours.
# Next, 2 mL of the RPMT-1640 culture solution (containing 10% FCS) in one of the 6-well cell culture dishes was replaced by the same, fresh culture solution, and 2 mL of the RPMT-1640 culture solution in the other 6-well cell culture dish was replaced by 0.5 μM (0.3 μg/mL) of doxorubicin, and the two culture dishes were incubated at 37° C. in a 5% CO2 condition for 3 days.
# The culture solution in the two cell culture dishes incubated in (1) was removed. […]
# Next, the degree of cell depth in each of the samples was measured through flow cytometry (FACSCalibur, Becton Dickinson Corp., Ex=488 nm, Em=530 nm (for FITC detection).
compound,measurement,value
COc1cccc2c1C(=O)c1c(O)c3c(c(O)c1C2=O)C[C@@](O)(C(=O)CO)C[C@@H]3O[C@H]1C[C@H](N)[C@H](O)[C@H](C)O1 [doxorubicin],"degree of cell death (FITC signal, flow cytometry)",most cells in the doxorubicin-treated sample died
